Measured values: patent publication US10111890B2, “9-aminomethyl minocycline compounds and uses thereof” (Paratek Pharmaceuticals, Inc., priority 2016, dated 2018)
Like-named read-outs stand apart in the source and are kept apart here.

Experiment: Phase 1 food-effect crossover study: plasma PK after single 300 mg oral dose
Format: in vivo, human
Details: for AUC(0-inf) / AUC(0-t) / Cmax / Tmax: plasma, po, 300 mg
Description: These meals were to be consumed within 20 minutes. Dose administration for Treatments B, C, and D was based off of the end time of the meal. […] Geometric means were determined for AUC and Cmax. PK parameters were evaluated using non-compartmental analysis using Phoenix® WinNonlin® (Pharsight Corp, St. Louis, Mo.), Version 6.2.1. Confidence intervals (CI) for test treatments (fed states: Treatments B, C, and D) compared with the reference treatment (fasted state: Treatment A) were constructed for AUC0-24, AUC0-t, AUC0-inf, and Cmax.

CN(C)c1cc(CNCC(C)(C)C)c(O)c2c1C[C@H]1C[C@H]3[C@H](N(C)C)C(O)=C(C(N)=O)C(=O)[C@@]3(O)C(O)=C1C2=O [Omadacycline, 9-[(2,2-dimethyl-propylamino)-methyl]-minocycline]
AUC0-24, Mean (Coefficient of Variation) (Treatment A: fasted overnight): 7.2 (28.1) mcg * h/mL
AUC0-t, Mean (Coefficient of Variation) (Treatment A: fasted overnight): 7.2 (28.1) mcg * h/mL
half-life (human, in vivo, across all treatment periods, read-out: mean T1/2): 13.5 to 13.8 h
AUC(0-inf) (human, Treatment A: fasted overnight (N = 30), read-out: AUC0-inf, Geometric LS Mean): 10.6 µg·h/mL
AUC(0-t) (human, Treatment A: fasted overnight, read-out: AUC0-24, Geometric LS Mean): 7.4 µg·h/mL
AUC(0-t) (human, Treatment A: fasted overnight, read-out: AUC0-24, Mean (Coefficient of Variation)): 7.2 µg·h/mL
AUC(0-inf) (human, Treatment A: fasted overnight, read-out: AUC0-inf, Mean (Coefficient of Variation)): 10.2 µg·h/mL
AUC(0-t) (human, Treatment A: fasted overnight, read-out: AUC0-t, Geometric LS Mean): 7.4 µg·h/mL
AUC(0-t) (human, Treatment A: fasted overnight, read-out: AUC0-t, Mean (Coefficient of Variation)): 7.2 µg·h/mL
Cmax (human, Treatment A: fasted overnight, read-out: Cmax, Geometric LS Mean): 0.66 µg/mL
Cmax (human, Treatment A: fasted overnight, read-out: Cmax, Mean (Coefficient of Variation)): 0.6 µg/mL
Tmax (human, Treatment A: fasted overnight, read-out: Tmax): 2.5 h
AUC(0-t) (human, Treatment B: high-fat nondairy meal 4 h before dosing, read-out: AUC0-24, Geometric LS Mean): 6.2 µg·h/mL
AUC(0-t) (human, Treatment B: high-fat nondairy meal 4 h before dosing, read-out: AUC0-24, Mean (Coefficient of Variation)): 6.1 µg·h/mL
AUC(0-inf) (human, Treatment B: high-fat nondairy meal 4 h before dosing, read-out: AUC0-inf, Geometric LS Mean): 9 µg·h/mL
AUC(0-inf) (human, Treatment B: high-fat nondairy meal 4 h before dosing, read-out: AUC0-inf, Mean (Coefficient of Variation)): 8.8 µg·h/mL
AUC(0-t) (human, Treatment B: high-fat nondairy meal 4 h before dosing, read-out: AUC0-t, Geometric LS Mean): 6.2 µg·h/mL
AUC(0-t) (human, Treatment B: high-fat nondairy meal 4 h before dosing, read-out: AUC0-t, Mean (Coefficient of Variation)): 6.1 µg·h/mL
Cmax (human, Treatment B: high-fat nondairy meal 4 h before dosing, read-out: Cmax, Geometric LS Mean): 0.56 µg/mL
Cmax (human, Treatment B: high-fat nondairy meal 4 h before dosing, read-out: Cmax, Mean (Coefficient of Variation)): 0.6 µg/mL
Tmax (human, Treatment B: high-fat nondairy meal 4 h before dosing, read-out: Tmax): 2.9 h
AUC(0-t) (human, Treatment C: high-fat nondairy meal 2 h before dosing, read-out: AUC0-24, Geometric LS Mean): 4.3 µg·h/mL
AUC(0-t) (human, Treatment C: high-fat nondairy meal 2 h before dosing, read-out: AUC0-24, Mean (Coefficient of Variation)): 4.2 µg·h/mL
AUC(0-inf) (human, Treatment C: high-fat nondairy meal 2 h before dosing, read-out: AUC0-inf, Geometric LS Mean): 6.2 µg·h/mL
AUC(0-inf) (human, Treatment C: high-fat nondairy meal 2 h before dosing, read-out: AUC0-inf, Mean (Coefficient of Variation)): 6 µg·h/mL
AUC(0-t) (human, Treatment C: high-fat nondairy meal 2 h before dosing, read-out: AUC0-t, Geometric LS Mean): 4.3 µg·h/mL
AUC(0-t) (human, Treatment C: high-fat nondairy meal 2 h before dosing, read-out: AUC0-t, Mean (Coefficient of Variation)): 4.2 µg·h/mL
Cmax (human, Treatment C: high-fat nondairy meal 2 h before dosing, read-out: Cmax, Geometric LS Mean): 0.39 µg/mL
Cmax (human, Treatment C: high-fat nondairy meal 2 h before dosing, read-out: Cmax, Mean (Coefficient of Variation)): 0.4 µg/mL
Tmax (human, Treatment C: high-fat nondairy meal 2 h before dosing, read-out: Tmax): 2.9 h
AUC(0-t) (human, Treatment D: high-fat meal incl. dairy 2 h before dosing, read-out: AUC0-24, Geometric LS Mean): 2.8 µg·h/mL
AUC(0-t) (human, Treatment D: high-fat meal incl. dairy 2 h before dosing, read-out: AUC0-24, Mean (Coefficient of Variation)): 2.8 µg·h/mL
AUC(0-inf) (human, Treatment D: high-fat meal incl. dairy 2 h before dosing, read-out: AUC0-inf, Geometric LS Mean): 4 µg·h/mL
AUC(0-inf) (human, Treatment D: high-fat meal incl. dairy 2 h before dosing, read-out: AUC0-inf, Mean (Coefficient of Variation)): 4 µg·h/mL
AUC(0-t) (human, Treatment D: high-fat meal incl. dairy 2 h before dosing, read-out: AUC0-t, Geometric LS Mean): 2.8 µg·h/mL
AUC(0-t) (human, Treatment D: high-fat meal incl. dairy 2 h before dosing, read-out: AUC0-t, Mean (Coefficient of Variation)): 2.8 µg·h/mL
Cmax (human, Treatment D: high-fat meal incl. dairy 2 h before dosing, read-out: Cmax, Geometric LS Mean): 0.27 µg/mL
Cmax (human, Treatment D: high-fat meal incl. dairy 2 h before dosing, read-out: Cmax, Mean (Coefficient of Variation)): 0.3 µg/mL
Tmax (human, Treatment D: high-fat meal incl. dairy 2 h before dosing, read-out: Tmax): 2.9 h
Tmax (human, across all treatment periods, read-out: median Tmax): 2.5 to 2.9 h
